Assay results from patent US8074906B2, “Process for milling and preparing powders and compositions produced thereby” (Nanotherapeutics, Inc., priority 2005, dated 2011).
Blank lines part the entries; values can stand above or below the compound they belong to.

Tests used:
[1] = in vivo pharmacokinetics of taurine formulations in rats; conditions: rat, oral, read-out: bioavailability (BA)
[2] = moisture uptake (weight change) at room temperature and humidity; format: physicochemical; conditions: lyophilized simple salt, 24 hours
Protocol: Initial Zn-DTPA simple salt solutions were prepared and lyophilized, producing a hygroscopic mixture not stable at room temperature and humidity (>10% moisture uptake in 24 hours). Zn-DTPA (trisodium zinc diethylenetriaminepentaacetate) were then mixed with (1) hydroxyl-propyl-methylcellulose (HPMC, K100M, Dow), (2) lactose (USP, Hawkins), and (3) silica dioxide (Sipernat 50S, Degussa) and dried using lyophilization. Preparation procedures include (A) mixing ingredients (75 and 90% Zn-DTPA, 1 g total each) into 10 ml DI water and adjusting pH with NaOH, (B) freezing at −20 C, (C) lyophilizing overnight (shelves at room temp), and (D) measuring the moisture uptake (weight change) at room temperature (20-25° C.) and humidity (40-55%) at 1 month.

[3] = particle size by Coulter DELSA 440; format: physicochemical
From the text: Oxcarbazepine, an antiepileptic drug marketed as Trileptal® by Novartis, is a white crystalline powder practically insoluble in water. Oxcarbazepine (100%) was milled in 1 kg batches according to the method described in EXAMPLE 1.
[…]

- bioavailability [1]: 18%
SMILES: NCCS(=O)(=O)O [unformulated taurine, Taurine]

- moisture uptake [2]: > 10%
SMILES: O=C([O-])CN(CCN(CC(=O)[O-])CC(=O)[O-])CCN(CC(=O)[O-])CC(=O)[O-].[Na+].[Na+].[Na+].[Zn+2] [Zn-DTPA, trisodium zinc diethylenetriaminepentaacetate]

- particle size ([3]; Pass 1): 2250 nm
- particle size ([3]; Pass 2): 524 nm
- particle size ([3]; Pass 3): 400 nm
- particle size ([3]; Pass 4): 264 nm
SMILES: NC(=O)N1c2ccccc2CC(=O)c2ccccc21 [Oxcarbazepine]
